From article PMC9516332 (Frontiers in Oncology, 2022)
Like-named read-outs stand apart in the source and are kept apart here.

Experiments:
Assay in all cases: Kinase panel profiling at 1 µmol/L (MSA or IMAP), percentage inhibition
Assay type in all cases: biochemical
[1] = target: panel of 255 wild-type kinases (Homo sapiens, UniProt Q16644); conditions: read-out: %-inhibition, MAPKAPK3
[2] = target: T1, panel of 255 wild-type kinases (Homo sapiens, UniProt Q8TF76); conditions: read-out: %-inhibition at 1 µmol/L, Haspin
T1 sequence (Q8TF76 1-798): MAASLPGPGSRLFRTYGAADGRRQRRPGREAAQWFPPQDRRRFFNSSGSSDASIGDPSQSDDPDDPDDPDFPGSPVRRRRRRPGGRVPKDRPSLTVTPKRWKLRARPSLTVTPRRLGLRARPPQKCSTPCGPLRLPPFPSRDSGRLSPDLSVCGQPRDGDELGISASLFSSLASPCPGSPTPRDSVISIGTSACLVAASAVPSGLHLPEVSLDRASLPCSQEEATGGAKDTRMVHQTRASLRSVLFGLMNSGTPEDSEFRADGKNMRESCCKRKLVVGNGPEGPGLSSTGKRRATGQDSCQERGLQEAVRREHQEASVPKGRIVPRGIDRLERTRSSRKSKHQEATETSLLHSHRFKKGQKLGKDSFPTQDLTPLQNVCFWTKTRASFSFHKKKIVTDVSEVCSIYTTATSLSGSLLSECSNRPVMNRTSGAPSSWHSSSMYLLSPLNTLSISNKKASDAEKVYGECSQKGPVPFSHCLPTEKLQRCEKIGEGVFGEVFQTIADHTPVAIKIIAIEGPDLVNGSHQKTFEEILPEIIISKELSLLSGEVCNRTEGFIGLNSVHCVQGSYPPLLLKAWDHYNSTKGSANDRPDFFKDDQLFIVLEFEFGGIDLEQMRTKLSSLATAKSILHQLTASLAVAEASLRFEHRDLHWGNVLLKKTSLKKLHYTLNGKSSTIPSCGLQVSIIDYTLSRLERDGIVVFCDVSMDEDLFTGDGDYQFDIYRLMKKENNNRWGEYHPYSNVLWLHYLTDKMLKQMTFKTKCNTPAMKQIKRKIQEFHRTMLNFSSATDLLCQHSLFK

[3] = target: T2, panel of 255 wild-type kinases (Homo sapiens, UniProt P51813); conditions: read-out: %-inhibition BMX
T2 sequence (P51813 1-675): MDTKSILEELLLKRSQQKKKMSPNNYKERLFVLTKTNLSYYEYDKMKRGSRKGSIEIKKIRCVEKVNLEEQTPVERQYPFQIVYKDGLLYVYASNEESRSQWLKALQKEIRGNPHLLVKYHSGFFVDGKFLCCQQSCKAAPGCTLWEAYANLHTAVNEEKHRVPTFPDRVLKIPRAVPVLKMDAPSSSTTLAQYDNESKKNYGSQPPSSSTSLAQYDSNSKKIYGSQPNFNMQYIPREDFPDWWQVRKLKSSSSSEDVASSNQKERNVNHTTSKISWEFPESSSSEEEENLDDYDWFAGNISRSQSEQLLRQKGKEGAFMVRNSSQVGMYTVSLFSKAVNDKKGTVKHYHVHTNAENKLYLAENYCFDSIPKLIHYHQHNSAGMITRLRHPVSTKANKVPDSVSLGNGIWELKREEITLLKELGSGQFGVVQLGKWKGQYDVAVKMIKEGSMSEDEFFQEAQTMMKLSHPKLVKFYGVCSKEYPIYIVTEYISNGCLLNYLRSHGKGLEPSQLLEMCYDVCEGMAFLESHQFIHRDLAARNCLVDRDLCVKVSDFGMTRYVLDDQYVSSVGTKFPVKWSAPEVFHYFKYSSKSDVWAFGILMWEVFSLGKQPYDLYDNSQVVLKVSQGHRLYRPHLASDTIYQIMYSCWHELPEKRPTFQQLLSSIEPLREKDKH

[4] = target: panel of 255 wild-type kinases (Homo sapiens, UniProt Q13627); conditions: read-out: %-inhibition at 1 µmol/L, DYRK1A
[5] = target: panel of 255 wild-type kinases (Homo sapiens, UniProt Q15375); conditions: read-out: %-inhibition at 1 µmol/L, EPHA7
[6] = target: panel of 255 wild-type kinases (Homo sapiens, UniProt Q9UKE5); conditions: read-out: %-inhibition at 1 µmol/L, TNIK
[7] = target: T3, panel of 255 wild-type kinases (Homo sapiens, UniProt Q14164); conditions: read-out: %-inhibition at 1 µmol/L, IKKε
T3 sequence (Q14164 1-716): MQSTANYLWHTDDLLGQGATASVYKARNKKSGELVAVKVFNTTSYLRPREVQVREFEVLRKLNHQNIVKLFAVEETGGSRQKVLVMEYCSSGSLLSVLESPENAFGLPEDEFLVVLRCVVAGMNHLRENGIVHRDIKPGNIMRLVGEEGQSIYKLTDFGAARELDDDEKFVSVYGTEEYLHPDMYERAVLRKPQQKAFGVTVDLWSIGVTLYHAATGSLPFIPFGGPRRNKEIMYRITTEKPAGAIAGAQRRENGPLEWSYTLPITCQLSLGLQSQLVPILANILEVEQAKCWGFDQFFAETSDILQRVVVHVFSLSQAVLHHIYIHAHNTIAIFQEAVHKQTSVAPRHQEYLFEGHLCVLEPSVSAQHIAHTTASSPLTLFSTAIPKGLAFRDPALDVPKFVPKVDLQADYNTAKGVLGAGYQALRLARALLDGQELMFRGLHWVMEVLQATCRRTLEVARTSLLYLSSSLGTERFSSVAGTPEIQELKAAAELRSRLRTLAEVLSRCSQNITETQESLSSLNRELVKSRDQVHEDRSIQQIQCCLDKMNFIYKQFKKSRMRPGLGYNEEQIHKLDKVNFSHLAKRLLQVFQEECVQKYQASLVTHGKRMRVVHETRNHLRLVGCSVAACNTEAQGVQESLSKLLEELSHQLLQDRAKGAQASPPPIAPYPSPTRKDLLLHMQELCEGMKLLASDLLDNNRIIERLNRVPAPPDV

[8] = target: panel of 255 wild-type kinases (Homo sapiens, UniProt Q15349); conditions: read-out: %-inhibition at 1 µmol/L, RSK3
[9] = target: panel of 255 wild-type kinases (Homo sapiens, UniProt P23443); conditions: read-out: %-inhibition, p70S6K
[10] = MAPKAPK3, 1 µmol/L single concentration
[11] = kinase Haspin, 1 µmol/L single concentration
[12] = BMX kinase assay, 1 µmol/L single concentration
[13] = kinase DYRK1A, 1 µmol/L single concentration
[14] = kinase EPHA7, 1 µmol/L single concentration
[15] = kinase TNIK, 1 µmol/L single concentration
[16] = kinase IKKε, 1 µmol/L single concentration
[17] = kinase RSK3, 1 µmol/L single concentration
[18] = p70S6K, 1 µmol/L single concentration

Cn1cnc2c(F)c(Nc3ccc(Br)cc3Cl)c(C(=O)NOCCO)cc21 [selumetinib]
inhibition at 1 µM [1, 10]: -14% | inhibition at 1 µM [2, 11]: 3.64% | inhibition at 1 µM [3, 12]: 2.24% | inhibition at 1 µM [4, 13]: -3.48% | inhibition at 1 µM [5, 14]: -1.78% | inhibition at 1 µM [6, 15]: 2.3% | inhibition at 1 µM [7, 16]: -5.67% | inhibition at 1 µM [8, 17]: 4.41% | inhibition at 1 µM [9, 18]: 8%

CCc1nc(C(N)=O)c(Nc2ccc(N3CCC(N4CCN(C)CC4)CC3)c(OC)c2)nc1NC1CCOCC1 [gilteritinib]
inhibition at 1 µM [1, 10]: -16% | inhibition at 1 µM [2, 11]: 35% | inhibition at 1 µM [3, 12]: 60% | inhibition at 1 µM [4, 13]: 18% | inhibition at 1 µM [5, 14]: 79% | inhibition at 1 µM [6, 15]: 94% | inhibition at 1 µM [7, 16]: 10% | inhibition at 1 µM [8, 17]: 64% | inhibition at 1 µM [9, 18]: 79%

CCN1C(=O)N(c2c(F)c(OC)cc(OC)c2F)Cc2cnc3[nH]c(CN4CCOCC4)cc3c21 [pemigatinib]
inhibition at 1 µM [1, 10]: -12% | inhibition at 1 µM [2, 11]: -3.7% | inhibition at 1 µM [3, 12]: 1.44% | inhibition at 1 µM [4, 13]: -2.67% | inhibition at 1 µM [5, 14]: -0.619% | inhibition at 1 µM [6, 15]: 4% | inhibition at 1 µM [7, 16]: 8.49% | inhibition at 1 µM [8, 17]: -7.51% | inhibition at 1 µM [9, 18]: -0.418%

Cn1cc(-c2cc3c(N4CCN(c5ncc([C@@](C)(N)c6ccc(F)cc6)cn5)CC4)ncnn3c2)cn1 [avapritinib]
inhibition at 1 µM [1, 10]: -4% | inhibition at 1 µM [2, 11]: 59% | inhibition at 1 µM [3, 12]: 21% | inhibition at 1 µM [4, 13]: 57% | inhibition at 1 µM [5, 14]: 13% | inhibition at 1 µM [6, 15]: 30% | inhibition at 1 µM [7, 16]: -0.262% | inhibition at 1 µM [8, 17]: 10% | inhibition at 1 µM [9, 18]: 20%

CNC(=O)c1ccc(-c2cnc3ncc(Cc4ccc5ncccc5c4)n3n2)cc1F [capmatinib]
inhibition at 1 µM [1]: -11% | inhibition at 1 µM [2]: 37% | inhibition at 1 µM [3]: 4.33% | inhibition at 1 µM [4]: -0.902% | inhibition at 1 µM [5]: -0.309% | inhibition at 1 µM [6]: 1.68% | inhibition at 1 µM [7]: -5.46% | inhibition at 1 µM [8]: 5% | inhibition at 1 µM [9]: 5.68%

C[C@H](Nc1ncnc2nc[nH]c12)c1cc2cccc(Cl)c2c(=O)n1-c1ccccc1 [duvelisib]
inhibition at 1 µM [1, 10]: -13% | inhibition at 1 µM [2, 11]: 2% | inhibition at 1 µM [3, 12]: 1.46% | inhibition at 1 µM [4, 13]: -3.48% | inhibition at 1 µM [5, 14]: -2.14% | inhibition at 1 µM [6, 15]: 5% | inhibition at 1 µM [7, 16]: -0.56% | inhibition at 1 µM [8, 17]: -0.46% | inhibition at 1 µM [9, 18]: 6%
